Measured values reported in article PMC10221314 (Pharmaceuticals, 2023).

Legend:
[1] = test system: BDL rats; experiment: Bile duct ligation (BDL) rat model; type: in vivo; details: 100 mg·kg-1 oral, 14 days
Description: (§1) Cells and liver tissue samples were subjected to RNA extraction and purification, followed by reverse transcription of equal amounts of total RNA into […] using a Transcriptor First Strand cDNA Synthesis Kit (Roche). The relative expression levels of the target gene were determined using TaqMan probe/primers with an ABI Q3 quantitative real-time PCR system, while GAPDH/Gapdh was utilized as an internal control for mRNA expression. The fold change in the expression of the target mRNA was calculated using Equation 2^−ΔΔCt.
The study involved 24 rats that were randomly assigned to 1 of 3 groups, including sham, BDL-N.S., and BDL-10b-100mg·kg^−1, ensuring 8 animals per group using Research Randomizer (RRID: SCR_008563). Of the 24 rats, 16 underwent BDL surgery, wherein the choledochal duct was ligated with surgical sutures after administering isoflurane anesthesia. After 24 h, the BDL rats were randomly divided into […] and received daily gavages of either normal saline (BDL-NS group) or 100 mg·kg^−1 of compound 10b suspended in 0.5% sodium carboxymethylcellulose solution (BDL-10b groups) for 14 days. A healthy control group was established with eight rats undergoing sham surgery. Bodyweights were measured daily, and blood samples were collected from the abdominal aorta after an overnight fast. Euthanasia was performed using isoflurane, following which bile was collected using a syringe, and liver tissue samples were collected. Some of the samples were fixed with 4% paraformaldehyde for subsequent histological examination, while others were stored at −80 °C for further analysis.
(§2) Kits purchased from Zhongsheng Beikong Biotechnology (Beijing, China) were used to measure the serum concentrations of alanine aminotransferase, aspartate aminotransferase, alkaline phosphatase, γ-glutamyl transpeptidase, total cholesterol, total triglyceride, low-density lipoprotein (LDL), high-density lipoprotein (HDL) cholesterol, lactate dehydrogenase, total bile acid, and total bilirubin. The samples were analyzed on a Hitachi 7100 Analyzer.
(§3) The liver tissue was fixed with formalin, embedded in paraffin, and sectioned. The sections were stained with H&E, Oil Red, Masson’s, and Sirius Red. Liver necrosis, inflammation, bile duct proliferation, hepatic steatosis, and lobule inflammation were evaluated on a scale of 1–5 in a blinded manner using a Leica DM1000 microscope. Five randomly selected manifold area fields of vision were used to quantify the red area in each field of vision (eight in each group), which was counted using ImageJ software. The liver hydroxyproline concentration was determined using kits from Nanjing, China, in accordance with the manufacturer’s instructions.

[2] = test system: LX-2 cells; experiment: mRNA expression of liver fibrosis marker genes in TGFβ1-induced LX-2 cells; type: cell-based; details: 20 μM, induced by 2 ng·mL^−1 TGFβ1, 24 h
Description: as §1
(A–E) The LX-2 cells underwent a 24 h treatment of 2 ng·mL^−1 TGFβ1, with or without varying concentrations of candidate compounds, following FBS starvation. […] GAPDH/GAPDH was used as the loading control. The mean ± SD values were obtained from three independent assays. […] ANOVA was followed by Tukey’s test for statistical analysis.

[3] = test system: HFD mice; experiment: CDAHFD diet-induced NASH mouse model; type: in vivo
Description: as §1
A total of 24 C57BL/6N mice were randomly assigned to three groups, including Ctrl., Model-N.S., and Model-10b-100 mg·kg^−1, with eight animals per group. The randomization process was performed using Research Randomizer (RRID: SCR_008563). CDHFD (D09100310) diet was obtained from Research Diets Inc. Sixteen mice were fed the CDHFD diet for 12 weeks to induce NASH, with eight mice receiving a normal diet as a control. At the beginning of the 13th week, the mice in the model group were randomly assigned into two groups and given daily gavages of either normal saline (Model-N.S. group) or 100 mg·kg^−1 of compound 10b suspended in 0.5% sodium carboxymethylcellulose solution (Model-10b groups) for four weeks. Daily bodyweights were recorded, and blood samples were collected from the abdominal aorta following an overnight fast. Afterward, the mice were euthanized using isoflurane. Liver tissue samples were obtained, and some were treated with 4% paraformaldehyde to prepare them for future histological analysis, while others were kept at −80 °C for later examination. Maximum liver lobule was collected for each mouse.
as §2, §3
The mouse liver samples were cut into small pieces of 50 mg size and homogenized in TG, TC, and FC extracts using a high-speed tissue homogenizer. The TG, TC, and FC were then extracted from the tissue, and their contents in the sample were calculated using the protein content for calibration. The determination process utilized the test kit for TC, TG, and FC of high-fat samples from Applygen Technologies Inc. (E1025, E1026, E1027).

[4] = HFD (CDAHFD) mice, 100 mg·kg-1 gavage daily, four weeks

CC1(C)CCC2(C(=O)O)CCC3(C)C(C(OC(=O)CCC(NC(=O)OC(C)(C)C)C(=O)OC(C)(C)C)CC4C5(C)CCC(O)C(C)(C)C5CCC43C)C2C1 [Compound 10b, 3β-hydroxy-12β-(4′-((tert-butoxycarbonyl)amide)-5′-(tert-butoxy)-L-glutamte)oxy-13H-olean-28-oic acid]
Bile TBA [1]: 249.4 ± 103.67 µmol/L | Bile TBiL [1]: 5.8 ± 2.46 µmol/L | Serum ALP [1]: 391.33±52.42 U·L-1 | Serum HDL [1]: 0.29 ± 0.06 mmol/L | Serum LDL [1]: 1.06 ± 0.22 mmol/L | Serum γ-GT [1]: 37.5±6.74 U·L-1 | Urine TBA [1]: 15.38 ± 5.76 µmol/L | Urine TBiL [1]: 5.33 ± 1.50 µmol/L | expression of fibrogenic genes Col1a1, Acta2, Tgfb1, Mmp2, Timp1, Itgav, Ctgf in rat liver (qRT-PCR) [1]: reduced | liver collagen accumulation (Sirius red staining) [1]: significantly attenuated | pathological impairments (bile duct hyperplasia, parenchymal necrosis, inflammation; H&E) [1]: substantially reduced | liver necrosis scores (blinded assessment) ([1]; vs BDL rats): significantly lower | mRNA expression of ACTA2 [2]: significantly decrease | mRNA expression of COL1A1 [2]: significantly decrease | mRNA expression of CTGF [2]: significantly decrease | mRNA expression of ITGAV [2]: significantly decrease | mRNA expression of TGFb1 [2]: significantly decrease | hepatic lobular inflammation (NAS score) ([3]; CDAHFD mice, 100 mg·kg-1): improved | intrahepatic steatosis (NAS score) ([3]; CDAHFD mice, 100 mg·kg-1): improved | liver FC (free cholesterol) ([3]; CDAHFD mice, 100 mg·kg-1): no significant effect | liver TC ([3]; CDAHFD mice, 100 mg·kg-1): no significant effect | total triglyceride content in the liver ([3]; CDAHFD mice, 100 mg·kg-1): reduced | Serum ALP [3, 4]: 189.71±29.41 U·L-1 | Serum ALT [3, 4]: 325.43±88.40 U·L-1 | Serum AST [3, 4]: 401.86±91.05 U·L-1 | Serum CHO [3, 4]: 2.36 ± 0.44 mmol/L | Serum Glu [3, 4]: 5.71 ± 1.25 mmol/L | Serum HDL [3, 4]: 1.22 ± 0.33 mmol/L | Serum LDH [3, 4]: 1326.57±264.54 U·L-1 | Serum LDL [3, 4]: 0.23 ± 0.04 mmol/L | Serum TBA [3, 4]: 23.46 ± 12.81 µmol/L | Serum TBiL [3, 4]: 3.81 ± 0.92 µmol/L | mRNA expression of liver fibrosis-related genes in liver ([3]; NASH mouse model, 100 mg·kg-1): inhibit
